Results from US10399940B2, “Substituted pyrrolidines and methods of use” (AbbVie S.à.r.l., priority 2016, dated 2019).
Read-outs that look alike come from different tables or passages of the source.

Target: T1, F508delCFTR (Homo sapiens, UniProt P13569, DEL508-508)
T1 construct: expressed in transfected cells; host or cells: CFBE41o- (human lung derived epithelial cell line), doxycycline-inducible expression
Assay: Cell Surface Expression-Horse Radish Peroxidase (CSE-HRP) assay
Format: cell-based
Details: CFBE41o-F508delCFTR-HRP cells; for Maximum % activity (with co-corrector): with co-corrector (2 μM); for Maximum % activity (with co-corrector) / Maximum % activity (without co-corrector): normalized to on-plate positive control, highest concentration 20 μM
Procedure: Cell Surface Expression-Horse Radish Peroxidase (CSE-HRP) Assay
A cellular assay for measuring the F508delCFTR cell surface expression after correction with test compounds either without or with a co-corrector (2 μM of 3-[(2R,4R)-4-({[1-(2,2-difluoro-1,3-benzodioxol-5-yl)cyclopropyl]carbonyl}amino)-7-methoxy-3,4-dihydro-2H-chromen-2-yl]benzoic acid), was developed in human lung derived epithelial cell line (CFBE41o-) (Veit G et al, (2012) Mol Biol Cell. 23(21): 4188-4202). The development was achieved by expressing the F508delCFTR mutation along with a horseradish peroxidase (HRP) in the fourth exofacial loop, and then measuring the HRP activity using luminescence readout from these cells, CFBE41o-F508delCFTR-HRP, that were incubated overnight with the test corrector compounds, either without or with the co-corrector. For this primary assay, the CFBE41o-F508delCFTR-HRP cells were plated in 384-well plates (Greiner Bio-one; Cat 781080) at 4,000 cells/well along with 0.5 μg/mL doxycycline to induce the F508delCFTR-HRP expression and further incubated at 37° C., 5% CO2 for 72 hours. The test compounds were then added either without or with a co-corrector at the required concentrations and further incubated for 18-24 hours at 33° C. The highest concentration tested was 20 μM with an 8-point concentration response curve using a 3-fold dilution in both the test compound without or with the co-corrector. Three replicate plates were run to determine one EC50. All plates contained negative controls (dimethyl sulfoxide, DMSO) and positive control (2 μM of 3-[(2R,4R)-4-({[1-(2,2-difluoro-1,3-benzodioxol-5-yl)cyclopropyl]carbonyl}amino)-7-methoxy-3,4-dihydro-2H-chromen-2-yl]benzoic acid) as well as on-plate concentration response of the positive control. Post incubation, the plates were washed 5× times with Dulbecco's phosphate buffered saline (DPBS), followed by the addition of the HRP substrate, luminol (50 μL), and measuring the HRP activity using luminescence readout on EnVision® Multilabel Plate Reader (Perkin Elmer; product number 2104-0010). The raw counts from the experiment were analyzed using Accelrys® Assay Explorer v3.3.
Z′ greater than 0.5 was used as passing quality control criteria for the plates.
The Z′ is defined as: 1−[3*SDPositive Control+3*SDNegative Control/Absolute(MeanPositive Control−MeanNegative Control)] wherein “SD” is standard deviation.
The % activity measured at each of the 8 test concentrations of the test compound added either without or with a co-corrector (2 μM of 3-[(2R,4R)-4-({[1-(2,2-difluoro-1,3-benzodioxol-5-yl)cyclopropyl]carbonyl}amino)-7-methoxy-3,4-dihydro-2H-chromen-2-yl]benzoic acid) was normalized to the on-plate positive control using the following formulae: % activity(Test compound without co-corrector)=[(test compound without co-corrector response−DMSO response)/(positive control response−DMSO response)]*100 % activity(Test compound with co-corrector)=[(test compound with co-corrector response−DMSO response)/(positive control response−DMSO response)]*100
The maximum % activity achieved for the test compound either without or with a co-corrector at any tested concentration is presented in Table 1 along with the respective EC50's calculated using the following general sigmoidal curve with variable Hill slope equation (described as Model 42 in the Accelrys® Assay Explorer v3.3 software): y=(a−d)/(1+(x/c)^b)+d
General sigmoidal curve with concentration, response, top, bottom, EC50 and Hill slope. This model describes a sigmoidal curve with an adjustable baseline, a. The equation can be used to fit curves where response is either increasing or decreasing with respect to the independent variable, “x”. • “x” is a concentration of drug under test. • “y” is the response. • “a” is the maximum response, and “d” is the minimum response • “c” is the inflection point (EC50) for the curve. That is, “y” is halfway between the lower and upper asymptotes when x=c. “b” is the slope-factor or Hill coefficient. […]

[1] = test compound without co-corrector, 18-24 hours at 33° C., read-out: EC50 (without co-corrector)
[2] = with co-corrector (2 μM of 3-[(2R,4R)-4-({[1-(2,2-difluoro-1,3-benzodioxol-5-yl)cyclopropyl]carbonyl}amino)-7-methoxy-3,4-dihydro-2H-chromen-2-yl]benzoic acid), read-out: EC50 (with co-corrector)

T1 sequence (P13569 with tags, fused parts or gaps DEL508-508): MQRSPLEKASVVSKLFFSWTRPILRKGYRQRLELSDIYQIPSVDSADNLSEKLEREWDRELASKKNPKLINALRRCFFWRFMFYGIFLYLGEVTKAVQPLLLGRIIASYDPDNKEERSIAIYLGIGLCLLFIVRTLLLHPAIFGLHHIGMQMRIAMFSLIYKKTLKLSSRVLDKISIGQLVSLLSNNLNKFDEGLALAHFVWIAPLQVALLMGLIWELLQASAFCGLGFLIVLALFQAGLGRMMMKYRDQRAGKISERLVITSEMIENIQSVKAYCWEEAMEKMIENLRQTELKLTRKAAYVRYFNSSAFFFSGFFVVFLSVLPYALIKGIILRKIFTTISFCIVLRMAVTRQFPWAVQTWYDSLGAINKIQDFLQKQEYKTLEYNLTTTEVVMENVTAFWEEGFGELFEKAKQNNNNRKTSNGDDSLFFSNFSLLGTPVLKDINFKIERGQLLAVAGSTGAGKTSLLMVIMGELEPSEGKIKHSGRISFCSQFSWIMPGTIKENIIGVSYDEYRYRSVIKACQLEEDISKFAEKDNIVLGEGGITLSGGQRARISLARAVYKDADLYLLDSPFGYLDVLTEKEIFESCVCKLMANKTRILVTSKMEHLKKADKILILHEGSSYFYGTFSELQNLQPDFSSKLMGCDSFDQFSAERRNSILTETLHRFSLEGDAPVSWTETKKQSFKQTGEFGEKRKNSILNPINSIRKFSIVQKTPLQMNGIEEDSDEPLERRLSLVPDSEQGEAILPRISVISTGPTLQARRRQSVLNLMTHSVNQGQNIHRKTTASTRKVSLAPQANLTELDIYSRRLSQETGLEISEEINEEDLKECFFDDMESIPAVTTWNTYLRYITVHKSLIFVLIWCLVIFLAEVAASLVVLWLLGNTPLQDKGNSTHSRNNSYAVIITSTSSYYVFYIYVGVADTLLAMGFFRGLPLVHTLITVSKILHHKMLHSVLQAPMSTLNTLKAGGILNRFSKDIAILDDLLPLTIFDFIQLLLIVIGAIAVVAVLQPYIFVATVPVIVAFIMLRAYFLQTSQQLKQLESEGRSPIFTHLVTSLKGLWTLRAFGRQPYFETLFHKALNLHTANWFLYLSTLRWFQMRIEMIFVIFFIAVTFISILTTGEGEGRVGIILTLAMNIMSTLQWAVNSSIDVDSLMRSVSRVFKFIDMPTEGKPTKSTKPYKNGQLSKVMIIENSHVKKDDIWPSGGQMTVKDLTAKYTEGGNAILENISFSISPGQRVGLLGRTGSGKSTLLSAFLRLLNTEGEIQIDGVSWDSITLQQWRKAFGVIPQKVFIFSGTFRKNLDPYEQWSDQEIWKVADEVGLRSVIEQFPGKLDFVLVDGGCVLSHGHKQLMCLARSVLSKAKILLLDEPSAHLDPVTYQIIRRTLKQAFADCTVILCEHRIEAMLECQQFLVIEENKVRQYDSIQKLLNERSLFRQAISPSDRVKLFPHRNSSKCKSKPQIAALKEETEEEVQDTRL

For `COc1ccc(C(F)(F)F)cc1CO[C@H]1[C@H](C(C)(C)C)[C@@H](C(=O)NS(=O)(=O)C2(C)CC2)N(C(=O)C2CCCCC2)[C@H]1c1ccccc1` [Example 22, (2S,3R,4S,5S)-3-tert-butyl-1-(cyclohexanecarbonyl)-4-{[2-methoxy-5-(trifluoromethyl)phenyl]methoxy}-N-(1-methylcyclopropane-1-sulfonyl)-5-phenylpyrrolidine-2-carboxamide], which EC50 [1] is on record?
The EC50 was greater than 10 µM.

What about the EC50 [2] of the same compound?
Its EC50 is greater than 10 µM.

And the “Maximum % activity (with co-corrector)” value?
Its value is “+ (<150)”.

And the “Maximum % activity (without co-corrector)” value?
Its value is “+ (<100)”.

Which EC50 [1] does the source give for `COc1ccc(C(F)(F)F)cc1CO[C@H]1[C@H](C(C)(C)C)[C@@H](C(=O)NS(=O)(=O)C2CC2)N(C(=O)C2CCCCC2)[C@H]1c1ccccc1` [Example 23, (2S,3R,4S,5S)-3-tert-butyl-1-(cyclohexanecarbonyl)-N-(cyclopropanesulfonyl)-4-{[2-methoxy-5-(trifluoromethyl)phenyl]methoxy}-5-phenylpyrrolidine-2-carboxamide] here?
Its EC50 is greater than 10 µM.

What about the EC50 [2] of the same compound?
The EC50 was 1 to 10 µM.

What about the “Maximum % activity (with co-corrector)” value of the same compound?
Its value is “++ (≥150 and <350)”.

And the “Maximum % activity (without co-corrector)” value?
Its value is “+ (<100)”.

What does the source list for `CCS(=O)(=O)NC(=O)[C@@H]1[C@@H](C(C)(C)C)[C@H](OCc2cc(C(F)(F)F)ccc2OC)[C@H](c2ccccc2)N1C(=O)C1CCCCC1` [Example 24, (2S,3R,4S,5S)-3-tert-butyl-1-(cyclohexanecarbonyl)-N-(ethanesulfonyl)-4-{[2-methoxy-5-(trifluoromethyl)phenyl]methoxy}-5-phenylpyrrolidine-2-carboxamide]?
EC50 [1]: > 10 µM; EC50 [2]: 1 to 10 µM; Maximum % activity (with co-corrector): ++ (≥150 and <350); Maximum % activity (without co-corrector): + (<100)

How did the EC50 [1] turn out when `COc1ccc(C(F)(F)F)cc1CO[C@H]1[C@H](C(C)(C)C)[C@@H](C(=O)NS(=O)(=O)N(C)C)N(C(=O)C2CCCCC2)[C@H]1c1ccccc1` [Example 25, (2S,3R,4S,5S)-3-tert-butyl-1-(cyclohexanecarbonyl)-N-(dimethylsulfamoyl)-4-{[2-methoxy-5-(trifluoromethyl)phenyl]methoxy}-5-phenylpyrrolidine-2-carboxamide] was run?
Its EC50 is greater than 10 µM.

What about the EC50 [2] of the same compound?
The EC50 was 1 to 10 µM.

What about the “Maximum % activity (with co-corrector)” value of the same compound?
The value was “++ (≥150 and <350)”.

And the “Maximum % activity (without co-corrector)” value?
Its value is “+ (<100)”.

How did the EC50 [1] turn out when `COc1ccc(C(F)(F)F)cc1CO[C@H]1[C@H](C(C)(C)C)[C@@H](C(=O)NS(C)(=O)=O)N(C(=O)C2CCCCC2)[C@H]1c1ccccc1` [Example 26, (2S,3R,4S,5S)-3-tert-butyl-1-(cyclohexanecarbonyl)-N-(methanesulfonyl)-4-{[2-methoxy-5-(trifluoromethyl)phenyl]methoxy}-5-phenylpyrrolidine-2-carboxamide] was run?
The EC50 was 1 to 10 µM.

And the EC50 [2]?
The EC50 was 1 to 10 µM.

What about the “Maximum % activity (with co-corrector)” value of the same compound?
Its value is “++ (≥150 and <350)”.

What about the “Maximum % activity (without co-corrector)” value of the same compound?
Its value is “+ (<100)”.

For `COc1ccc(C(F)(F)F)cc1CO[C@@H]1[C@@H](C(C)(C)C)[C@H](C(=O)O)N(C(=O)[C@H]2CCC[C@H](OC)C2)[C@@H]1c1ccccc1` [Example 27, (2R,3S,4R,5R)-3-tert-butyl-1-[(1S,3S)-3-methoxycyclohexane-1-carbonyl]-4-{[2-methoxy-5-(trifluoromethyl)phenyl]methoxy}-5-phenylpyrrolidine-2-carboxylic acid], which EC50 [1] is on record?
Its EC50 is 1 to 10 µM.

What about the EC50 [2] of the same compound?
The EC50 was less than 1 µM.

What about the “Maximum % activity (with co-corrector)” value of the same compound?
The value was “+++ (≥350)”.

And the “Maximum % activity (without co-corrector)” value?
The value was “++ (≥100 and <200)”.

With `CO[C@H]1CCC[C@H](C(=O)N2[C@H](c3ccccc3)[C@H](Oc3cc(C(F)(F)F)cc(C)n3)[C@@H](C(C)(C)C)[C@@H]2C(=O)O)C1` [Example 28, (2R,3S,4R,5R)-3-tert-butyl-1-[(1S,3S)-3-methoxycyclohexane-1-carbonyl]-4-{[6-methyl-4-(trifluoromethyl)pyridin-2-yl]oxy}-5-phenylpyrrolidine-2-carboxylic acid] as the compound, how does the EC50 [1] read?
Its EC50 is 1 to 10 µM.

What about the EC50 [2] of the same compound?
The EC50 was 1 to 10 µM.

And the “Maximum % activity (with co-corrector)” value?
Its value is “+++ (≥350)”.

What about the “Maximum % activity (without co-corrector)” value of the same compound?
The value was “++ (≥100 and <200)”.

What does the source list for `COc1ccc(C(F)(F)F)cc1CO[C@H]1[C@H](C(C)(C)C)[C@@H](C(=O)O)N(C(=O)[C@H]2CCC[C@H](OC)C2)[C@H]1c1ccccc1` [Example 30, (2S,3R,4S,5S)-3-tert-butyl-1-[(1S,3S)-3-methoxycyclohexane-1-carbonyl]-4-{[2-methoxy-5-(trifluoromethyl)phenyl]methoxy}-5-phenylpyrrolidine-2-carboxylic acid]?
EC50 [1]: 1 to 10 µM; EC50 [2]: < 1 µM; Maximum % activity (with co-corrector): +++ (≥350); Maximum % activity (without co-corrector): ++ (≥100 and <200)

`COc1ccc(C(F)(F)F)cc1CO[C@H]1[C@H](C(C)(C)C)[C@@H](C(=O)O)N(C(=O)[C@@H]2CCC[C@@H](OC)C2)[C@H]1c1ccccc1` [Example 31, (2S,3R,4S,5S)-3-tert-butyl-1-[(1R,3R)-3-methoxycyclohexane-1-carbonyl]-4-{[2-methoxy-5-(trifluoromethyl)phenyl]methoxy}-5-phenylpyrrolidine-2-carboxylic acid] was tested. Which EC50 [1] did it give?
The EC50 was 1 to 10 µM.

What about the EC50 [2] of the same compound?
The EC50 was less than 1 µM.

And the “Maximum % activity (with co-corrector)” value?
The value was “+++ (≥350)”.

And the “Maximum % activity (without co-corrector)” value?
Its value is “+++ (≥200)”.

How did the EC50 [1] turn out when `COc1cc(C(F)(F)F)ccc1CO[C@H]1[C@H](C(C)(C)C)[C@@H](C(=O)O)N(C(=O)[C@H]2CCC[C@H](OC)C2)[C@H]1c1ccccc1` [Example 32, (2S,3R,4S,5S)-3-tert-butyl-1-[(1S,3S)-3-methoxycyclohexane-1-carbonyl]-4-{[2-methoxy-4-(trifluoromethyl)phenyl]methoxy}-5-phenylpyrrolidine-2-carboxylic acid] was run?
Its EC50 is 1 to 10 µM.

And the EC50 [2]?
The EC50 was 1 to 10 µM.

What about the “Maximum % activity (with co-corrector)” value of the same compound?
Its value is “+++ (≥350)”.

What about the “Maximum % activity (without co-corrector)” value of the same compound?
Its value is “+ (<100)”.

With `COc1cc(C(F)(F)F)ccc1CO[C@H]1[C@H](C(C)(C)C)[C@@H](C(=O)O)N(C(=O)[C@@H]2CCC[C@@H](OC)C2)[C@H]1c1ccccc1` [Example 33, (2S,3R,4S,5S)-3-tert-butyl-1-[(1R,3R)-3-methoxycyclohexane-1-carbonyl]-4-{[2-methoxy-4-(trifluoromethyl)phenyl]methoxy}-5-phenylpyrrolidine-2-carboxylic acid] as the compound, how does the EC50 [1] read?
Its EC50 is 1 to 10 µM.

What about the EC50 [2] of the same compound?
The EC50 was 1 to 10 µM.

And the “Maximum % activity (with co-corrector)” value?
The value was “+++ (≥350)”.

And the “Maximum % activity (without co-corrector)” value?
The value was “++ (≥100 and <200)”.

`COc1ccc(Br)cc1CO[C@H]1[C@H](C(C)(C)C)[C@@H](C(=O)O)N(C(=O)OC(C)C)[C@H]1c1ccccc1` [Example 36, (2S,3R,4S,5S)-4-[(5-bromo-2-methoxyphenyl)methoxy]-3-tert-butyl-5-phenyl-1-{[(propan-2-yl)oxy]carbonyl}pyrrolidine-2-carboxylic acid] was tested. Which EC50 [1] did it give?
Its EC50 is 1 to 10 µM.

And the EC50 [2]?
Its EC50 is 1 to 10 µM.

What about the “Maximum % activity (with co-corrector)” value of the same compound?
Its value is “+++ (≥350)”.

What about the “Maximum % activity (without co-corrector)” value of the same compound?
The value was “++ (≥100 and <200)”.
